pIC50: −log10 of the molar value.
How the values were obtained:
[1] = molecular target: T1, Serine/threonine-protein kinase NLK (Homo sapiens) (UniProt Q9UBE8); assay: Inhibition of human NLK assessed as residual activity at 1 uM using RBER-GSK3 as substrate in presence of 33P-ATP by ProQinase assay relative to control
T1 sequence (whole entry): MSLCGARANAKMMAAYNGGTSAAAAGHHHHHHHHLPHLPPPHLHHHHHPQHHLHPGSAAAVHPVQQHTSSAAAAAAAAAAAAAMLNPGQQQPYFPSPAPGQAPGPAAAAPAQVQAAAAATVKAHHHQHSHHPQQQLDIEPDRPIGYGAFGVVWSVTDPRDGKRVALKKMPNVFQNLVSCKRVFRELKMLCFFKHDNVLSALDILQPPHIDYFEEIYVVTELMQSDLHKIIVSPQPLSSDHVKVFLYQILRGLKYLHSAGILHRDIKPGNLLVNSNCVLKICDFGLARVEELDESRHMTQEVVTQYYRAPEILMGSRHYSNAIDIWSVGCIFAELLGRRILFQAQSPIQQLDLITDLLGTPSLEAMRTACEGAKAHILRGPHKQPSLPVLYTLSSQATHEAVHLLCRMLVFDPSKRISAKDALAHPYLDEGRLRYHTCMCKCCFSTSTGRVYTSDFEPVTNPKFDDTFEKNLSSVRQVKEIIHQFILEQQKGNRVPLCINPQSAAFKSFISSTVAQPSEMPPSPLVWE

[2] = molecular target: Ribosomal protein S6 kinase alpha-6 (Homo sapiens) (UniProt Q9UK32); assay: Inhibition of N-terminal kinase domain RPS6KA6 (unknown origin) assessed as remaining activity at 1 uM by Kinome scan method relative to control
[3] = test system: Hepatocyte growth factor receptor (Homo sapiens), P08581 [M1250T]; assay: Inhibition of human MET M1250T mutant assessed as residual activity at 1 uM using poly(Ala,Glu,Lys,Tyr)6:2:5:1 as substrate in presence of 33P-ATP by ProQinase assay relative to control
[4] = molecular target: High affinity nerve growth factor receptor (Homo sapiens) (UniProt P04629); assay: Inhibition of TRKA (unknown origin) assessed as remaining activity at 1 uM by Kinome scan method relative to control
[5] = Plasma concentration in Gal/LPS induced mouse at 3 mg/kg, po for 1 hrs; assay type: ADME, organism-based
[6] = molecular target: Mitogen-activated protein kinase kinase kinase 11 (Homo sapiens) (UniProt Q16584); assay: Inhibition of human MAP3K11 assessed as residual activity at 1 uM using MBP as substrate in presence of 33P-ATP by ProQinase assay relative to control
Sequence of Mitogen-activated protein kinase kinase kinase 11 (Homo sapiens) (Q16584 whole entry, looked up): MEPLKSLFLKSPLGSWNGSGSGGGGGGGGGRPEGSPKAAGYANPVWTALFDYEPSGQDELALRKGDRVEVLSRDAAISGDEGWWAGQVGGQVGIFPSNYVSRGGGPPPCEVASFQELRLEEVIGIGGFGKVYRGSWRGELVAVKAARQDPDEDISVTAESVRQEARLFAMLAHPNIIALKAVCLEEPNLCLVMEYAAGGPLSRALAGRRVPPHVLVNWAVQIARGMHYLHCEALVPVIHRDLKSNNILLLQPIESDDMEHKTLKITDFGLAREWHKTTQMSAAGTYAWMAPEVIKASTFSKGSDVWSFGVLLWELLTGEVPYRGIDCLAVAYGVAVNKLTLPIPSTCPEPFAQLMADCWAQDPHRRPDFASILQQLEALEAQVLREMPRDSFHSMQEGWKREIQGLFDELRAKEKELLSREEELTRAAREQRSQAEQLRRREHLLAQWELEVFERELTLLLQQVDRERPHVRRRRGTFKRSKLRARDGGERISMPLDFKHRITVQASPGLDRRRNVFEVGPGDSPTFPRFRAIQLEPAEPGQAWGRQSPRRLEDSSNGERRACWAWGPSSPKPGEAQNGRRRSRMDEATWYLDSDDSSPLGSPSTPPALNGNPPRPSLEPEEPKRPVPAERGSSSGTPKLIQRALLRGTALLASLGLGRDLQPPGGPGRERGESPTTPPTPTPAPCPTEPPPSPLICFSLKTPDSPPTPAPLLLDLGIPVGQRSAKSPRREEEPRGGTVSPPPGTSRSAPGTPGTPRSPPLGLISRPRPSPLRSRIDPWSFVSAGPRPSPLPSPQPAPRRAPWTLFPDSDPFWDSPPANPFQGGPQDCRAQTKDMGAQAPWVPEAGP

[7] = molecular target: Serine/threonine-protein kinase MARK1 (Homo sapiens) (UniProt Q9P0L2); assay: Inhibition of human MARK1 assessed as residual activity at 1 uM using RBER-CHKtide as substrate in presence of 33P-ATP by ProQinase assay relative to control
[8] = molecular target: Casein kinase I isoform epsilon (Homo sapiens) (UniProt P49674); assay: Inhibition of CSNK1E (unknown origin) assessed as remaining activity at 1 uM by Kinome scan method relative to control
Sequence of Casein kinase I isoform epsilon (Homo sapiens) (P49674 whole entry, looked up, canonical isoform): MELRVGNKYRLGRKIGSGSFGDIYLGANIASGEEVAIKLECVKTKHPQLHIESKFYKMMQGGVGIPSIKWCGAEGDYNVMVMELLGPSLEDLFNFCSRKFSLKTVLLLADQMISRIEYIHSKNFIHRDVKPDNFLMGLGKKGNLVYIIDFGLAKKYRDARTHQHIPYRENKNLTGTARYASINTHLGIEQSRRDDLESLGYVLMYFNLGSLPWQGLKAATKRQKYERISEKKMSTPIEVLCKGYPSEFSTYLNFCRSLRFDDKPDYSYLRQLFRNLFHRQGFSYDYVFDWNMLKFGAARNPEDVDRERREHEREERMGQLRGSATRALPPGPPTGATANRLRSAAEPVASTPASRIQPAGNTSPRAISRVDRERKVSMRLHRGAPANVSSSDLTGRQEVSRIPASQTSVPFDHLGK

[9] = molecular target: Dual specificity mitogen-activated protein kinase kinase 1 (Homo sapiens) (UniProt Q02750); assay: Inhibition of MEK1 (unknown origin) assessed as remaining activity at 1 uM by Kinome scan method relative to control
Sequence of Dual specificity mitogen-activated protein kinase kinase 1 (Homo sapiens) (Q02750 whole entry): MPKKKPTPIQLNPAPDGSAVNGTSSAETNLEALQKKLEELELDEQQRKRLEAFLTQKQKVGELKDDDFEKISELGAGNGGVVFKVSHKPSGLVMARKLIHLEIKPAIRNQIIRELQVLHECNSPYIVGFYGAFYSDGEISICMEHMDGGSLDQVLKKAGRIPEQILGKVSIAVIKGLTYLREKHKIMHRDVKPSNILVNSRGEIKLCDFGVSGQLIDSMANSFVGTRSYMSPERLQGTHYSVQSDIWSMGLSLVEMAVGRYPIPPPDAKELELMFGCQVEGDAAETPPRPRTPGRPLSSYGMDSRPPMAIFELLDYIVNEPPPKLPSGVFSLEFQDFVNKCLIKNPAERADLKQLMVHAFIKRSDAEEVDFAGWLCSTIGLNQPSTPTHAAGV

[10] = molecular target: T2, TGF-beta receptor type-1 (Homo sapiens) (UniProt P36897); assay: Inhibition of human TGFBR1 assessed as residual activity at 1 uM using RBER-GSK3(14-27) as substrate in presence of 33P-ATP by ProQinase assay relative to control
T2 sequence (whole entry): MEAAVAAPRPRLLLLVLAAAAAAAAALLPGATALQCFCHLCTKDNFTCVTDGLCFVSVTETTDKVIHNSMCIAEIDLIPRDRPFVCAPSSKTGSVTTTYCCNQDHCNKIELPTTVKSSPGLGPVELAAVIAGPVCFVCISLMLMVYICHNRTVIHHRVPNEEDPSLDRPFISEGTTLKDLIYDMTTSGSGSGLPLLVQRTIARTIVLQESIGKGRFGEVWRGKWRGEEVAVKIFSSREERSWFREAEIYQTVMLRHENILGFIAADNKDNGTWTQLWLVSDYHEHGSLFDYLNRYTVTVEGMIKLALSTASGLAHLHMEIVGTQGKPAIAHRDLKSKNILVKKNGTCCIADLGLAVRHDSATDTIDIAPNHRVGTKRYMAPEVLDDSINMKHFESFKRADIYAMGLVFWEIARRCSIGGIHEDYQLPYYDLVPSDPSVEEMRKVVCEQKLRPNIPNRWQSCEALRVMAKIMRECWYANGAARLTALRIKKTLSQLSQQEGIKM

[11] = molecular target: Fibroblast growth factor receptor 4 (Homo sapiens) (UniProt P22455); assay: Inhibition of human FGFR4 assessed as residual activity at 1 uM using polyEy as substrate in presence of 33P-ATP by ProQinase assay relative to control
Sequence of Fibroblast growth factor receptor 4 (Homo sapiens) (P22455 22-802 limits assumed): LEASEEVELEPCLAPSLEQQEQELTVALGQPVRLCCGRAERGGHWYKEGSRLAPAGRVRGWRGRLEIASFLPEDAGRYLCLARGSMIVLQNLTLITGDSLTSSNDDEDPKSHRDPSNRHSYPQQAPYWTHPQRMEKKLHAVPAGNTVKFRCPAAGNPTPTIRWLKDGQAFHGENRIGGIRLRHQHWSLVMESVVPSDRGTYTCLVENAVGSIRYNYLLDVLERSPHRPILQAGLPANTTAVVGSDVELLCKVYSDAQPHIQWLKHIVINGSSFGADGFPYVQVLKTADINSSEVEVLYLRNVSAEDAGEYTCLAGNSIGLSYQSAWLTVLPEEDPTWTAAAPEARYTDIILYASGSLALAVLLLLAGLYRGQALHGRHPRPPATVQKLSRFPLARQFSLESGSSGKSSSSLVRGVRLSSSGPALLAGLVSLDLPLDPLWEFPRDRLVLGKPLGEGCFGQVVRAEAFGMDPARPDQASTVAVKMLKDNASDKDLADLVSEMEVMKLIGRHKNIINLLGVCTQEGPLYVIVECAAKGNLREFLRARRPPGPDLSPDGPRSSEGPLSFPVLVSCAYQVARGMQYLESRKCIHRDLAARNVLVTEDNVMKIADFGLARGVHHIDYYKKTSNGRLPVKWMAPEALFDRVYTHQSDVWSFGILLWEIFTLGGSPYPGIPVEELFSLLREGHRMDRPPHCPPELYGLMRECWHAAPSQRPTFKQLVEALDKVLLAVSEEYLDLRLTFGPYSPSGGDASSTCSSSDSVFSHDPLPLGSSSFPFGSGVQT

[12] = Anti-inflammatory activity against human derived high respond PBMC cells assessed as inhibition in stimulated TARC chemokine release incubated for 2 hrs in the presence of LPS/SEB/aCD28 by Luminex based sandwich immunoassay; assay type: functional, cell-based
[13] = molecular target: Serine/threonine-protein kinase 3 (Homo sapiens) (UniProt Q13188); assay: Inhibition of human MST2 assessed as residual activity at 1 uM using RB-CTF as substrate in presence of 33P-ATP by ProQinase assay relative to control
[14] = molecular target: Homeodomain-interacting protein kinase 3 (Homo sapiens) (UniProt Q9H422); assay: Inhibition of human HIPK3 assessed as residual activity at 1 uM using RBER-CHKtide as substrate in presence of 33P-ATP by ProQinase assay relative to control
Sequence of Homeodomain-interacting protein kinase 3 (Homo sapiens) (Q9H422 whole entry, looked up): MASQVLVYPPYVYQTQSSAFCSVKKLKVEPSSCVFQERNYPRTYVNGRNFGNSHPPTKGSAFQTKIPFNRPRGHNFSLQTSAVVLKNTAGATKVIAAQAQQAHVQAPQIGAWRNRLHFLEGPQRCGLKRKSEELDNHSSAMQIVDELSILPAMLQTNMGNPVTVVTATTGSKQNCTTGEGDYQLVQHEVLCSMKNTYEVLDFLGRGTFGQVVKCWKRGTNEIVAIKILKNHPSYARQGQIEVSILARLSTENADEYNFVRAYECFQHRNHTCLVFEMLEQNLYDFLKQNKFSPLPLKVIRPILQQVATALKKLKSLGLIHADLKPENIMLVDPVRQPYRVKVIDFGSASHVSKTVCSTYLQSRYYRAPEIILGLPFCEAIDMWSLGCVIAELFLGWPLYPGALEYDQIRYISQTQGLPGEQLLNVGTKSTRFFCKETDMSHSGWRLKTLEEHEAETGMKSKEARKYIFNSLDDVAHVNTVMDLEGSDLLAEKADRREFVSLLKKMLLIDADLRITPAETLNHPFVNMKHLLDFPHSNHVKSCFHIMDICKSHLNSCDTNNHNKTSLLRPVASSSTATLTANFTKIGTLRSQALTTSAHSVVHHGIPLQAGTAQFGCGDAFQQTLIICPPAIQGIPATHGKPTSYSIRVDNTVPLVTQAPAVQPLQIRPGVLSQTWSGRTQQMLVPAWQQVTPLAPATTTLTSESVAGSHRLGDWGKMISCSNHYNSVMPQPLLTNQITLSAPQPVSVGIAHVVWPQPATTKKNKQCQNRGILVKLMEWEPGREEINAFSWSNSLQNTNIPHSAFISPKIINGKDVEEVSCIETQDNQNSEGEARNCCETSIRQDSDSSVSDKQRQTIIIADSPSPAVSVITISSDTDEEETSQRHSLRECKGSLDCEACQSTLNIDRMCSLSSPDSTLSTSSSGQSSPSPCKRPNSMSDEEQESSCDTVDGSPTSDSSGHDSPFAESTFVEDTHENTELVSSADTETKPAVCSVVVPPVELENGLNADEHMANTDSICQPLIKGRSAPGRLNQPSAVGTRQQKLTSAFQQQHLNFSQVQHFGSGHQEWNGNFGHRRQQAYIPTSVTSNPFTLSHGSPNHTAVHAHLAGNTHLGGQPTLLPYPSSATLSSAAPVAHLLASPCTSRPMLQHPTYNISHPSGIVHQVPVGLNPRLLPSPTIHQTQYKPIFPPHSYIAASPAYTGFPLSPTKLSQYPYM

[15] = molecular target: Serine/threonine-protein kinase PAK 5 (Homo sapiens) (UniProt Q9P286); assay: Inhibition of human PAK7 assessed as residual activity at 1 uM using bio-4xCHKT as substrate in presence of 33P-ATP by ProQinase assay relative to control
[16] = molecular target: Leukocyte tyrosine kinase receptor (Homo sapiens) (UniProt P29376); assay: Inhibition of human LTK assessed as residual activity at 1 uM using polyEY as substrate in presence of 33P-ATP by ProQinase assay relative to control
Sequence of Leukocyte tyrosine kinase receptor (Homo sapiens) (P29376 whole entry): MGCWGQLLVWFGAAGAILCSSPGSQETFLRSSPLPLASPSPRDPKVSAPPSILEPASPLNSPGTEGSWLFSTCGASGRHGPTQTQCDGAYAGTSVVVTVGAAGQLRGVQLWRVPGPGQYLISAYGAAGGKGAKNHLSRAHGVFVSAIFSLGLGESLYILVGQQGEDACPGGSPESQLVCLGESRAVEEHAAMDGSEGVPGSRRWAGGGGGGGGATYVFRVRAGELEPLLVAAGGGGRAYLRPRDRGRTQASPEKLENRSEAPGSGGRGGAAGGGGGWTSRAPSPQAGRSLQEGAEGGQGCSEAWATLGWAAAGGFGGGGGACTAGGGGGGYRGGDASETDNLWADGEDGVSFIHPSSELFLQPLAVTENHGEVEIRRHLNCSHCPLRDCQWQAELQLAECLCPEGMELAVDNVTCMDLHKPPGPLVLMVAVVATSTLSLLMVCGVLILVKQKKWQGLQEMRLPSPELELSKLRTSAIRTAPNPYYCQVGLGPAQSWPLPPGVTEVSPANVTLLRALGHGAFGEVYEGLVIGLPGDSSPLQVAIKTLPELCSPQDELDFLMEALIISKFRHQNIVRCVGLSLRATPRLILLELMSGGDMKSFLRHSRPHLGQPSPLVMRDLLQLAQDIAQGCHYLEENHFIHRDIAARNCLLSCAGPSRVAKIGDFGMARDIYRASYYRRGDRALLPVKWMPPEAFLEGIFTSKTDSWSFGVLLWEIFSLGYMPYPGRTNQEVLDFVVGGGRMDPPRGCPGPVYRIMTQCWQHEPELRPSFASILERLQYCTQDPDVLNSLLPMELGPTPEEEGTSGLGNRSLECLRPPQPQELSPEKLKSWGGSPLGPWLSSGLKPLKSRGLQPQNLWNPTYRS

[17] = molecular target: Serine/threonine-protein kinase Nek7 (Homo sapiens) (UniProt Q8TDX7); assay: Inhibition of NEK7 (unknown origin) assessed as remaining activity at 1 uM by Kinome scan method relative to control
Sequence of Serine/threonine-protein kinase Nek7 (Homo sapiens) (Q8TDX7 whole entry, looked up): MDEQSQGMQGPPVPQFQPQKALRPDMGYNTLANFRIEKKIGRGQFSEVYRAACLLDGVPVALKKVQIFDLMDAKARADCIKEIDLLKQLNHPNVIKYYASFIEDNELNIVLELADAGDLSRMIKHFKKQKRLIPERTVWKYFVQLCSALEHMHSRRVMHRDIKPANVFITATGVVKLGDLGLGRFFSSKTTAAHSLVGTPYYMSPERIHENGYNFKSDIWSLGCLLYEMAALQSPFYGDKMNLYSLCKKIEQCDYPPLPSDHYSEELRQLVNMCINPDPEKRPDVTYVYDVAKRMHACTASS

[18] = molecular target: Ephrin type-B receptor 2 (Homo sapiens) (UniProt P29323); assay: Inhibition of human EPHB2 assessed as residual activity at 1 uM using poly(Ala,Glu,Lys,Tyr)6:2:5:1 as substrate in presence of 33P-ATP by ProQinase assay relative to control
[19] = Anti-inflammatory activity against human derived high respond PBMC cells assessed as inhibition in stimulated IL-1alpha cytokine release incubated for 2 hrs in the presence of LPS/SEB/aCD28 by Luminex based sandwich immunoassay; assay type: functional, cell-based
[20] = molecular target: Serine/threonine-protein kinase MRCK alpha (Homo sapiens) (UniProt Q5VT25); assay: Inhibition of MRCKA (unknown origin) assessed as remaining activity at 1 uM by Kinome scan method relative to control

O=C1c2ccc(Nc3ccc(F)cc3F)cc2CCc2ccc(OC[C@H](O)CO)cc21 [Skepinone-L]
Activity [1]: 87% | Activity [2]: 90% | Activity [3]: 100% | Activity [4]: 88% | concentration at 1 h [5]: 240 nM | Activity [6]: 114% | Activity [7]: 88% | Activity [8]: 100% | Activity [9]: 86% | Activity [10]: 93% | Activity [11]: 103% | IC50 [12]: Not Active | Activity [13]: 83% | Activity [14]: 91% | Activity [15]: 87% | Activity [16]: 97% | Activity [17]: 96% | Activity [18]: 91% | pIC50 [19]: 6.92 | Activity [20]: 100%
